Target: human TRPA1 (Homo sapiens (Human), UniProt O75762)
Assay: Measurement of TRPA1 antagonist activity (1): intracellular calcium increase
Type: cell-based
Settings: 293T cells transfected with human TRPA1 expression plasmid; allylisothiocyanate 20 μM stimulation; intracellular calcium fluorescence; read-out: hTRPA1 IC50
From the text: Measurement of TRPA1 Antagonist Activity (1)
Human TRPA1 Expression Plasmid
As cDNA encoding human TRPA1 (GenBank accession No. […]), a commercially available product was purchased (manufactured by Kazusa DNA Research Institute, clone No.: pFN21AB7348, item No.: FHC07217). Using this as a template, full-length human TRPA1 gene was amplified using the primer sequences shown below, by reaction using DNA polymerase (manufactured by Stratagene, trade name: PfuUltra High-Fidelity DNA Polymerase).
A recognition site (underlined) of restriction enzyme HindIII was added to the 5′ side, and XbaI site (underlined) was added to the 3′ side, and GTT of the template sequence was changed to termination codon TAG (bold). The obtained double stranded DNA was enzyme-digested with HindIII and XbaI, and introduced into the multicloning site of expression plasmid pcDNA3.1/zeo(+) (manufactured by Invitrogen) to construct a human TRPA1 expression plasmid.
Human embryonic kidney-derived 293T cells were cultured in Dulbecco's Modified Eagle Medium containing 10% fetal bovine serum, 10 unit penicillin, and 10 μg streptomycin, plated on a petri dish having a diameter of 10 cm at 3×10^6 cells, and cultured for 24 hr in a CO2 incubator. A reduced serum medium (manufactured by Invitrogen, trade name: OPTI-MEM, 600 μL), a gene transfer reagent (manufactured by Mirus Bio, trade name: Mirus TransIT-293, 18 μL), and human TRPA1 expression plasmid (6 μg) were mixed, the total amount of the mixture was added to the cells on the petri dish to allow for gene transfer. The cells were recovered about for 8 hr later, plated on a poly-D-lysine coated 384 well black/clear bottom plate at 12,000 cells/well, and cultured overnight.
Measurement of Intracellular Calcium Increase
The 384 well plate was recovered, and the medium was removed. A calcium-bonded fluorescent indicator (manufactured by Molecular Device, trade name: Calcium4 Assay Kit, 38 μL) dissolved in assay buffer (1×HBSS, 20 mM HEPES, pH 7.2) was added, and the cells were stained in a CO2 incubator for 1 hr. The cells were taken out at room temperature, stood for not less than 15 min, a test substance (10 μL) was added by a platereader FDSS7000 (Hamamatsu Photonics K.K.) equipped with a 384ch dispenser. After 10 min, allylisothiocyanate (12 μL) was further added at a final concentration of 20 μM, and changes in the relative fluorescence intensity after addition of allylisothiocyanate were measured for 5 min.
Test Substance Preparation
The test substance was dissolved in dimethyl sulfoxide and serially diluted with an assay buffer containing 0.1% bovine serum albumin (1×HBSS, 20 mM HEPES, pH 7.2) to a 4.8-fold concentration of the evaluation concentration. Allylisothiocyanate, which is a known TRPA1 activator, was dissolved in dimethyl sulfoxide to 100 mM, and further diluted 5-fold (100 μM) of the final concentration, like the test substance.
Calculation of Antagonist Activity
Under the test substance-free conditions, the maximum variation range of the fluorescence intensity before and after allylisothiocyanate stimulation was defined to be 100% activity rate, and the variation range before and after buffer stimulation was defined as 0% activity rate. The activity rate on addition of the test substance was determined, and the numerical value obtained by subtracting the activity rate from 100 was defined to be an inhibitory rate. IC50, which is the concentration of the test substance necessary for reaching the 50% inhibitory rate, was calculated from the sigmoid approximate curve by a spreadsheet software Excel-Fit.

human TRPA1, sequence (O75762 whole entry): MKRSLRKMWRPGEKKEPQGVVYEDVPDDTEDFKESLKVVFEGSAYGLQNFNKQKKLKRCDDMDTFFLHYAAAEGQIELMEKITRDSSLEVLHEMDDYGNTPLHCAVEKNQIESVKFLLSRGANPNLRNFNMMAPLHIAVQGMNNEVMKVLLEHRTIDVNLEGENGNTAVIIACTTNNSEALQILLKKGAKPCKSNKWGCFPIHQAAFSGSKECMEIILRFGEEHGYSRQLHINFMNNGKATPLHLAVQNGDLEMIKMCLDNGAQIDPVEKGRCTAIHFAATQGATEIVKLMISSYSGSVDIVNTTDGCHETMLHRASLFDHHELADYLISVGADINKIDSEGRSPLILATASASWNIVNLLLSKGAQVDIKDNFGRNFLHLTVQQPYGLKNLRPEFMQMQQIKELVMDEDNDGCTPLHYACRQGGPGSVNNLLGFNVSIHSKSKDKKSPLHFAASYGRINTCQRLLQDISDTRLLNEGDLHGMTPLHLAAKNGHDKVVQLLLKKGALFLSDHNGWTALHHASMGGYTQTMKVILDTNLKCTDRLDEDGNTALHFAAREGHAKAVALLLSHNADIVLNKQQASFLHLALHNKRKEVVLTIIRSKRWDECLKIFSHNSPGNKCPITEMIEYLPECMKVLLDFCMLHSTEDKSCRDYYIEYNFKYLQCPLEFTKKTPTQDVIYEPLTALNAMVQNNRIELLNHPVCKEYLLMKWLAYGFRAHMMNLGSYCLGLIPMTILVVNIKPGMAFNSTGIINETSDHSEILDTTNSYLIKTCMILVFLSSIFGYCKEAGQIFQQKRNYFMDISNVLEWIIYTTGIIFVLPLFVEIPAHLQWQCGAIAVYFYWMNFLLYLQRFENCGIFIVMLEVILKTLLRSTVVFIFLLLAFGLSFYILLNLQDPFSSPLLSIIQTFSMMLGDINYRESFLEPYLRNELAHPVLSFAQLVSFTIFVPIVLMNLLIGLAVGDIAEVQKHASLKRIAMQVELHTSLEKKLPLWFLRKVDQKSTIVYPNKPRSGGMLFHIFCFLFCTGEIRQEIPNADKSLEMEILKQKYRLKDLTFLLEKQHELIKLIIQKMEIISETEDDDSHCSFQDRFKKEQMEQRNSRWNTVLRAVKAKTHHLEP

| IC50 | SMILES |
| --- | --- |
| 0.16 µM | O=C(NCc1ccc(Oc2cccc(C(F)(F)F)c2)cc1)[C@@H]1CCCN1S(=O)(=O)c1cc2ccccc2o1 [Example 50, (2S)-1-(benzofuran-2-ylsulfonyl)-N-[[4-[3-(trifluoromethyl)phenoxy]phenyl]-methyl]pyrrolidine-2-carboxamide] |
| 0.019 µM | O=C(NCc1ccc(Oc2cccc(C(F)(F)F)c2)cc1)[C@@H]1CCCN1S(=O)(=O)c1cc2cc(F)ccc2o1 [Example 51, (2S)-1-(5-fluorobenzofuran-2-yl)sulfonyl-N-[[4-[3-(trifluoromethyl)phenoxy]phenyl]-methyl]pyrrolidine-2-carboxamide] |
| 0.032 µM | O=C(NCc1cccc(Oc2ccc(C(F)(F)F)cc2)c1)[C@@H]1CCCN1S(=O)(=O)c1cc2ccccc2o1 [Example 52, (2S)-1-(benzofuran-2-ylsulfonyl)-N-[[3-[4-(trifluoromethyl)phenoxy]phenyl]-methyl]pyrrolidine-2-carboxamide] |
| 0.0027 µM | O=C(NCc1cccc(Oc2ccc(C(F)(F)F)cc2)c1)[C@@H]1CCCN1S(=O)(=O)c1cc2cc(F)ccc2o1 [Example 53, (2S)-1-(5-fluorobenzofuran-2-yl)sulfonyl-N-[[3-[4-(trifluoromethyl)phenoxy]phenyl]-methyl]pyrrolidine-2-carboxamide] |
| 0.009 µM | O=C(NCc1cccc(Oc2ccc(C(F)(F)F)nc2)c1)[C@@H]1CCCN1S(=O)(=O)c1cc2ccccc2o1 [Example 54, (2S)-1-(benzofuran-2-ylsulfonyl)-N-[[3-[[6-(trifluoromethyl)-3-pyridyl]oxy]phenyl]methyl]-pyrrolidine-2-carboxamide] |
| 0.088 µM | O=C(NCc1ccc(Oc2ccnc(C(F)(F)F)c2)cc1)[C@@H]1CCCN1S(=O)(=O)c1cc2ccccc2o1 [Example 55, (2S)-1-(benzofuran-2-ylsulfonyl)-N-[[4-[[2-(trifluoromethyl)-4-pyridyl]oxy]phenyl]methyl]-pyrrolidine-2-carboxamide] |
| 0.021 µM | O=C(NCc1ccc(Oc2ccnc(C(F)(F)F)c2)cc1)[C@@H]1CCCN1S(=O)(=O)c1cc2cc(F)ccc2o1 [Example 56, (2S)-1-(5-fluorobenzofuran-2-yl)sulfonyl-N-[[4-[[2-(trifluoromethyl)-4-pyridyl]oxy]phenyl]methyl]-pyrrolidine-2-carboxamide] |
| 0.43 µM | O=C(NCc1ccc(COc2ccccc2)cc1)[C@@H]1CCCN1S(=O)(=O)c1cc2ccccc2o1 [Example 58, (2S)-1-(benzofuran-2-ylsulfonyl)-N-[[4-(phenoxymethyl)phenyl]methyl]-pyrrolidine-2-carboxamide] |
| 0.055 µM | O=C(NCc1cccc(C(F)(F)F)c1)[C@@H]1CCCN1S(=O)(=O)c1cc2ccccc2o1 [Example 61, (2S)-1-(benzofuran-2-ylsulfonyl)-N-[[3-(trifluoromethyl)phenyl]methyl]-pyrrolidine-2-carboxamide] |
| 0.06 µM | O=C(NCc1cccc(OC(F)(F)F)c1)[C@@H]1CCCN1S(=O)(=O)c1cc2ccccc2o1 [Example 62, (2S)-1-(benzofuran-2-ylsulfonyl)-N-[[3-(trifluoromethoxy)phenyl]methyl]-pyrrolidine-2-carboxamide] |
| 0.06 µM | O=C(NCc1ccc(OC(F)(F)F)cc1)[C@@H]1CCCN1S(=O)(=O)c1cc2ccccc2o1 [Example 63, (2S)-1-(benzofuran-2-ylsulfonyl)-N-[[4-(trifluoromethoxy)phenyl]methyl]-pyrrolidine-2-carboxamide] |
| 0.021 µM | O=C(NCc1ccc(OC(F)(F)F)cc1)[C@@H]1CCCN1S(=O)(=O)c1cc2cc(F)ccc2o1 [Example 66, (2S)-1-(5-fluorobenzofuran-2-yl)sulfonyl-N-[[4-(trifluoromethoxy)phenyl]methyl]-pyrrolidine-2-carboxamide] |
| 0.0097 µM | O=C(NCc1cc(C(F)(F)F)ccc1Cl)[C@@H]1CCCN1S(=O)(=O)c1cc2ccccc2o1 [Example 67, (2S)-1-(benzofuran-2-ylsulfonyl)-N-[[2-chloro-5-(trifluoromethyl)phenyl]methyl]-pyrrolidine-2-carboxamide] |

Second part, the molecule before the results:

| SMILES | IC50 |
| --- | --- |
| O=C(NCc1cccc(SCc2ccccc2)c1)[C@@H]1CCCN1S(=O)(=O)c1cc2ccccc2o1 [Example 57, (2S)-1-(benzofuran-2-ylsulfonyl)-N-[(3-benzylsulfanylphenyl)methyl]pyrrolidine-2-carboxamide] | 0.016 µM |
| O=C(NCc1cccc(F)c1)[C@@H]1CCCN1S(=O)(=O)c1cc2ccccc2o1 [Example 59, (2S)-1-(benzofuran-2-ylsulfonyl)-N-[(3-fluorophenyl)methyl]pyrrolidine-2-carboxamide] | 0.54 µM |
| O=C(NCc1cccc(Cl)c1)[C@@H]1CCCN1S(=O)(=O)c1cc2ccccc2o1 [Example 60, (2S)-1-(benzofuran-2-ylsulfonyl)-N-[(3-chlorophenyl)methyl]pyrrolidine-2-carboxamide] | 0.2 µM |
| O=C(NCc1ccccc1OC(F)(F)F)[C@@H]1CCCN1S(=O)(=O)c1cc2ccccc2o1 [Example 64, (2S)-1-(benzofuran-2-ylsulfonyl)-N-[[2-(trifluoromethoxy)phenyl]methyl]-pyrrolidine-2-carboxamide] | 0.1 µM |
| O=C(NCc1cccc(OC(F)(F)F)c1)[C@@H]1CCCN1S(=O)(=O)c1cc2cc(F)ccc2o1 [Example 65, (2S)-1-(5-fluorobenzofuran-2-yl)sulfonyl-N-[[3-(trifluoromethoxy)phenyl]methyl]-pyrrolidine-2-carboxamide] | 0.015 µM |
| COc1c(F)ccc(CNC(=O)[C@@H]2CCCN2S(=O)(=O)c2cc3ccccc3o2)c1F [Example 68, (2S)-1-(benzofuran-2-ylsulfonyl)-N-[(2,4-difluoro-3-methoxy-phenyl)methyl]pyrrolidine-2-carboxamide] | 0.39 µM |
| O=C(NCc1ccc(OC(F)(F)F)c(F)c1)[C@@H]1CCCN1S(=O)(=O)c1cc2cc(F)ccc2o1 [Example 69, (2S)-1-(5-fluorobenzofuran-2-yl)sulfonyl-N-[[3-fluoro-4-(trifluoromethoxy)phenyl]methyl]-pyrrolidine-2-carboxamide] | 0.012 µM |
| O=C(NCc1ccc(F)c(OC(F)(F)F)c1)[C@@H]1CCCN1S(=O)(=O)c1cc2cc(F)ccc2o1 [Example 70, (2S)-1-(5-fluorobenzofuran-2-yl)sulfonyl-N-[[4-fluoro-3-(trifluoromethoxy)phenyl]methyl]-pyrrolidine-2-carboxamide] | 0.011 µM |
| O=C(NCc1cc(OC(F)(F)F)ccc1F)[C@@H]1CCCN1S(=O)(=O)c1cc2cc(F)ccc2o1 [Example 71, (2S)-1-(5-fluorobenzofuran-2-yl)sulfonyl-N-[[2-fluoro-5-(trifluoromethoxy)phenyl]methyl]-pyrrolidine-2-carboxamide] | 0.0032 µM |
| C[C@H](NS(=O)(=O)c1cc2ccccc2o1)C(=O)NCc1cc(C(F)(F)F)ccc1Cl [Example 72, (2S)-2-(benzofuran-2-ylsulfonylamino)-N-[[2-chloro-5-(trifluoromethyl)phenyl]methyl]-propanamide] | 0.35 µM |
| C[C@H](NS(=O)(=O)c1cc2cc(F)ccc2o1)C(=O)NCc1cc(OC(F)(F)F)ccc1F [Example 73, (2S)-2-[(5-fluorobenzofuran-2-yl)sulfonylamino]-N-[[2-fluoro-5-(trifluoromethoxy)phenyl]methyl]-propanamide] | 0.16 µM |

Source: US10626112B2, “Heterocyclic sulfonamide derivative and medicine comprising same” (EA PHARMA CO., LTD., priority 2014, dated 2020)
